# Laboratory results reported in paper PMC8157854, “Radiosynthesis and Evaluation of Talazoparib and Its Derivatives as PARP-1-Targeting Agents” (Biomedicines, 2021).
# How the values were obtained:
# P-glycoprotein (P-gp) = tested on: P-glycoprotein (P-gp); design: method as in PMID 31770456; settings: cited from earlier work
# intratumoral PAR = tested on: intratumoral PAR; design: method as in PMID 26652717; settings: at 2 and 8 h time points, partial recovery at 24 h; cited from earlier work
# PARP-1 = PARP-1 (Homo sapiens, UniProt P09874); test: Competitive binding assay with [3H]WC-DZ in U251MG cells; settings: for pseudoHill coefficient n′H: competitive binding vs [3H]WC-DZ in U251MG cells, Mean ± SEM, n = 3
# Sequence of PARP-1 (P09874 whole entry): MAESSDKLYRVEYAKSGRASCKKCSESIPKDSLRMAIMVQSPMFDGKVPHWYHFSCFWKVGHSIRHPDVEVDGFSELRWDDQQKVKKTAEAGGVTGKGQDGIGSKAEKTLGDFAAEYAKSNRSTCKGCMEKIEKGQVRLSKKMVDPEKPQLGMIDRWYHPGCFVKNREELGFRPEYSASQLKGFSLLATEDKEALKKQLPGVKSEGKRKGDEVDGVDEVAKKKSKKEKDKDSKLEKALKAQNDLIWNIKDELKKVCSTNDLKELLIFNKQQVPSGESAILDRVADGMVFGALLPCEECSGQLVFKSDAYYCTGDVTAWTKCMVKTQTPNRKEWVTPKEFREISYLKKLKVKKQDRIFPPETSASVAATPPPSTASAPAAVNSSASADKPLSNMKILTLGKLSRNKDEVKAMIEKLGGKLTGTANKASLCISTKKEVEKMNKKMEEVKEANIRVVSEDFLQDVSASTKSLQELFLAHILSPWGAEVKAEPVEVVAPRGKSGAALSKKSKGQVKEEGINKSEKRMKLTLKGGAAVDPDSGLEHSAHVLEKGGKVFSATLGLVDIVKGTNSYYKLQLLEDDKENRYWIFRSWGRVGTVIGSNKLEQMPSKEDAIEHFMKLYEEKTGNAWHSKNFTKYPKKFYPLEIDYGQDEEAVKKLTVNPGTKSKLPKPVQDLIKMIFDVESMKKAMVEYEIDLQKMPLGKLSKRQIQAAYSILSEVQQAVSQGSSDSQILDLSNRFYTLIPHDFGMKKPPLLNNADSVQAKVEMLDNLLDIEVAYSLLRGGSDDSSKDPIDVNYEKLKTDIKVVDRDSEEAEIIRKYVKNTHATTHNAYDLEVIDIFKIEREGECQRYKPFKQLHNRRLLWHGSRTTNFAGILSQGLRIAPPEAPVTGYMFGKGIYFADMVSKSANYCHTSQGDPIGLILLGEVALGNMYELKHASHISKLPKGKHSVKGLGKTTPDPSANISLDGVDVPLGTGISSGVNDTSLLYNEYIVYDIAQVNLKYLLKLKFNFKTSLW
# Description: After the reaction was completed, the cells were washed once with ice-cold PBS and the bound radioactivity was counted and analyzed as described above.
# Competitive dissociation constants (Ki values) were derived from the Cheng and Prussoff equation [24]: Ki=IC50/1+Lt/Kd
# Data from competitive binding were transformed to determine the pseudo-Hill coefficient, n′H, using the following equation: logBs/B0−Bs=n^′HlogI−n^′HlogIC50, in which the negative of the Hill slope, n′H, can be readily calculated by a linear regression of plotting logBs/B0−Bs vs. logI , as we published [22, 25].
# PC-3 prostate tumors = test: Biodistribution of [18F]talazoparib in PC-3 tumor-bearing SCID mice; type: in vivo; settings: for tumor uptake: PC-3 tumor
# Description: 2.5. Xenograft Model The animal studies were approved by Washington University’s Institutional Animal Care and Use Committee (IACUC), Protocol #20-0214 approved 7 August 2020. The overall animal care was following The Guide for the Care and Use of Laboratory Animals from the National Research Council and the USDA Animal Care Resource Guide. Mature SCID mice from Charles River Laboratories were allowed to acclimate in an AALAC accredited housing facility for at least 1 week before tumor implantation for the biodistribution study. Male SCID mice (4 weeks old, n = 4/group, 2 groups), with 1 × 10^7 PC-3 prostate cancer cells implanted subcutaneously in the right shoulder grew for about 35 days before the radiotracer biodistribution studies. 2.6. Biodistribution Animals were intravenously injected with [^18F]talazoparib (120 µCi) in 10% ethanol/saline (100 µL) via the tail vein. At the specified time point (4 and 8 h), the mice were sacrificed, the blood, lungs, liver, spleen, kidneys, muscle, fat, heart, brain, bone, bone marrow, prostate, pancreas, and tumor were harvested, weighed, and counted in a γ-counter. The percentage injected dose per gram of tissue (%ID/g) was determined by decay correction of the [^18F]talazoparib for each sample and then normalized by the standard injected radiotracer dose and the sample weight.
structure (smiles),measurement,setting,value
"Cn1ncnc1[C@H]1c2n[nH]c(=O)c3cc(F)cc(c23)N[C@@H]1c1ccc(F)cc1 [3a″, (8S,9R)-5-Fluoro-8-(4-fluorophenyl)-9-(1-methyl-1H-1,2,4-triazol-5-yl)-2,7,8,9-tetrahydro-3H-pyrido[4,3,2-de]phthalazin-3-one]",P-glycoprotein substrate,P-glycoprotein (P-gp),substrate of P-glycoprotein (P-gp)
same,intratumoral PAR concentration,intratumoral PAR,significantly attenuated
"Cn1ncnc1C1c2n[nH]c(=O)c3cc(F)cc(c23)NC1c1ccc(Br)cc1 (centres unmarked) [Compound 3b, 8-(4-bromophenyl)-5-fluoro-9-(1-methyl-1H-1,2,4-triazol-5-yl)-2,7,8,9-tetrahydro-3H-pyrido[4,3,2-de]phthalazin-3-one]",Ki,PARP-1,1.92 ± 0.41 nM
same,pseudoHill coefficient n′H,PARP-1,1.24 ± 0.24
"Cn1ncnc1C1c2n[nH]c(=O)c3cc(F)cc(c23)NC1c1ccc(I)cc1 (centres unmarked) [Compound 3c, 8-(4-iodophenyl)-5-fluoro-9-(1-methyl-1H-1,2,4-triazol-5-yl)-2,7,8,9-tetrahydro-3H-pyrido[4,3,2-de]phthalazin-3-one]",Ki,PARP-1,1.73 ± 0.43 nM
same,pseudoHill coefficient n′H,PARP-1,1.01 ± 0.20
"CCN1CCC[C@H]1CNC(=O)c1c(O)c(Cl)cc(Cl)c1OC [Raclopride, reference compound]",Ki,PARP-1,> 20000 nM
same,displacement of [3H]WC-DZ,"PARP-1; U251MG cells, 0.1 nM to 1 µM",No apparent displacement
Cn1ncnc1[C@H]1c2n[nH]c(=O)c3cc(F)cc(c23)N[C@@H]1c1ccc([18F])cc1 [[^18F]talazoparib],tumor uptake,"PC-3 prostate tumors; 4 h post-injection, i.v., SCID mice",3.78 ± 0.55 %ID/gram
same,tumor uptake,"PC-3 prostate tumors; 8 h post-injection, i.v., SCID mice",4.52 ± 0.32 %ID/gram
same,"uptake in liver, spleen, kidney, and pancreas","PC-3 prostate tumors; after 4 h, only slightly reduced at 8 h",High uptake
same,uptake in bone marrow,PC-3 prostate tumors; at 4 and 8 h,high
same,time for clearance of radioactivity from the blood,"PC-3 prostate tumors; blood, i.v., SCID mice",≤ 4 h
same,brain uptake,"PC-3 prostate tumors; brain, 4 h post-injection, i.v., SCID mice",0.05 ± 0.01 %ID/gram
